For test [1], the system named is HuM2e antibody 23K12. Format: binding, human.
Test [2] has as its system anti-M2 human monoclonal antibody Z3G1. It counts as binding.

For the substance “716 (SLLTEVETPIRNEFGCRCNDSSD; epitope peptide) [compound 716]”, the “Signal (peptides that bind to 23K21 and 8I10)” value in test [1] is 702. For the same substance, in test [2], the “Signal (peptides that show specific binding to Z3G1)” value is recorded as 2444.
As for “426 (SLLTEVETPIRNEWGCRCNDSLD; epitope peptide) [compound 426]”, the “Signal (peptides that bind to 23K21 and 8I10)” value in test [1] is 779. Also, the “Signal (peptides that bind to Z3G1)” value in test [2] was 2400.
Take “676 (SLLTEVETPIENEWGCRCNDSSD; epitope peptide) [compound 676]”: in test [1], the “Signal (peptides that bind to 23K21 and 8I10)” value came out at 731. Further, the “Signal (peptides that show specific binding to Z3G1)” value in test [2] was 2252.
Take “326 (SLLTEVETPIRNEWGCRCNDSSD; epitope peptide) [compound 326]”: in test [1], the “Signal (peptides that bind to 23K21 and 8I10)” value came to 1749. Further, the “Signal (peptides that show specific binding to Z3G1)” value in test [2] was determined as 2476.
On to “684 (SLLTEVETPIRNHWGCRCNDSSD; epitope peptide) [compound 684]”, for which the “Signal (peptides that bind to 23K21 and 8I10)” value in test [1] amounted to 728. The “Signal (peptides that show specific binding to Z3G1)” value in test [2] is on record as 2377.
Turning to “482 (CLCTCVGSLLTEV; epitope peptide) [compound 482]”, the “Signal (peptides that bind to 23K21 and 8I10)” value in test [1] was 1178. Further, in test [2], the “Signal (peptides that show specific binding to Z3G1)” value was 1953.
Taken in the same sequence, the figures for “692 (SLLTEVETPILNEWGCRCNDSSD; epitope peptide) [compound 692]” were 721 and 2363.
Regarding “477 (SLLTECGSLLCEV; epitope peptide) [compound 477]”, in test [1], the “Signal (peptides that bind to 23K21 and 8I10)” value was 1206. The “Signal (peptides that show specific binding to Z3G1)” value in test [2] is recorded as 2403.
Turning to “370 (SLLTEVETPIRNEWGERCNDSSD; epitope peptide) [compound 370]”, the “Signal (peptides that bind to 23K21 and 8I10)” value in test [1] was found to be 1474. Further, the “Signal (peptides that show specific binding to Z3G1)” value in test [2] was determined as 2286.
Take “297 (CSLLTEVGMCLCTCV; epitope peptide) [compound 297]”: the “Signal (peptides that bind to 23K21 and 8I10)” value in test [1] was 1972. Further, the “Signal (peptides that bind to Z3G1)” value in test [2] was 2649.
On the same counts, the results for “555 (SLLTEVETPIRNEWGCRCWDSSD; epitope peptide) [compound 555]” are 901 and 2462.
As to “484 (SLVTEVETPIRNEWGCRCNDSSD; epitope peptide) [compound 484]”, the “Signal (peptides that bind to 23K21 and 8I10)” value in test [1] is reported as 1175. For the same substance, the “Signal (peptides that show specific binding to Z3G1)” value in test [2] was found to be 2029.
For “610 (SLLTEVETDIRNEWGCRCNDSSD; epitope peptide) [compound 610]”, the “Signal (peptides that bind to 23K21 and 8I10)” value in test [1] was found to be 813. In addition, the “Signal (peptides that show specific binding to Z3G1)” value in test [2] was determined as 2392.
On the same counts, the results for “493 (SLLTEVETMIRNEWGCRCNDSSD; epitope peptide) [compound 493]” are 1104 and 2320.
As for “641 (SLLTEVETPIRNELGCRCNDSSD; epitope peptide) [compound 641]”, the “Signal (peptides that bind to 23K21 and 8I10)” value in test [1] is recorded as 765. In test [2], the “Signal (peptides that show specific binding to Z3G1)” value is on record as 2436.
For the substance “551 (SLLTEVATPIRNEWGCRCNDSSD; epitope peptide) [compound 551]”, the “Signal (peptides that bind to 23K21 and 8I10)” value in test [1] is 914. The “Signal (peptides that show specific binding to Z3G1)” value in test [2] is recorded as 2093.
With “679 (SLLTEVETPIRNEWGCECNDSSD; epitope peptide) [compound 679]”, the “Signal (peptides that bind to 23K21 and 8I10)” value in test [1] is given as 730. In addition, the “Signal (peptides that show specific binding to Z3G1)” value in test [2] worked out at 2148.
Regarding “528 (MSLLTCVGCSLLTEV; epitope peptide) [compound 528]”, in test [1], the “Signal (peptides that bind to 23K21 and 8I10)” value stood at 978. Also, the “Signal (peptides that bind to Z3G1)” value in test [2] is reported as 2467.
Turning to “579 (SLLTEVETPIRNEWGCRWNDSSD; epitope peptide) [compound 579]”, the “Signal (peptides that bind to 23K21 and 8I10)” value in test [1] stood at 859. In test [2], the “Signal (peptides that bind to Z3G1)” value was 2364.
“341 (CSLLTEVCSLLTEC; epitope peptide) [compound 341]”: the “Signal (peptides that bind to 23K21 and 8I10)” value in test [1] amounted to 1644. For the same substance, the “Signal (peptides that show specific binding to Z3G1)” value in test [2] came to 1122.
Take “572 (SLLTEVETPIRNEKGCRCNDSSD; epitope peptide) [compound 572]”: in test [1], the “Signal (peptides that bind to 23K21 and 8I10)” value came out at 868. Also, the “Signal (peptides that show specific binding to Z3G1)” value in test [2] is on record as 2580.
Take “606 (SLLTEVETQIRNEWGCRCNDSSD; epitope peptide) [compound 606]”: in test [1], the “Signal (peptides that bind to 23K21 and 8I10)” value is 819. Moreover, the “Signal (peptides that show specific binding to Z3G1)” value in test [2] is given as 2189.
In the case of “230 (CTPIRNEWGSRSNDSSCSLLTEVETC; epitope peptide) [compound 230]”, the “Signal (peptides that bind to 23K21 and 8I10)” value in test [1] came out at 861. For the same substance, the “Signal (peptides that show specific binding to Z3G1)” value in test [2] was 2168.
Taken in the same sequence, the figures for “324 (SLCTEVGSLLTEV; epitope peptide) [compound 324]” were 1772 and 1780.
With “516 (SLLTEVETPIRNEWGCRCPDSSD; epitope peptide) [compound 516]”, in test [1], the “Signal (peptides that bind to 23K21 and 8I10)” value was determined as 1024. In addition, the “Signal (peptides that bind to Z3G1)” value in test [2] is given as 2449.
On the same counts, the results for “359 (MSLLTEVGMSCLTEV; epitope peptide) [compound 359]” are 1535 and 2793.
On to “377 (SLKTEVETPIRNEWGCRCNDSSD; epitope peptide) [compound 377]”, for which the “Signal (peptides that bind to 23K21 and 8I10)” value in test [1] was found to be 1434. The “Signal (peptides that show specific binding to Z3G1)” value in test [2] was 1453.
Turning to “393 (SLLTEVETPIRNEWGCRCNLSSD; epitope peptide) [compound 393]”, the “Signal (peptides that bind to 23K21 and 8I10)” value in test [1] is listed as 1334. Further, in test [2], the “Signal (peptides that bind to Z3G1)” value is 2634.
For “161 (CPIRNEWGSRSNDSSDCSLLTEVETC; epitope peptide) [compound 161]”, the “Signal (peptides that bind to 23K21 and 8I10)” value in test [1] was found to be 1206. Further, the “Signal (peptides that show specific binding to Z3G1)” value in test [2] amounted to 2759.
On the same counts, the results for “545 (SLLTEVSTPIRNEWGCRCNDSSD; epitope peptide) [compound 545]” are 923 and 2288.
As for “403 (SLLTEVETPIRNEWGCRCNDCSD; epitope peptide) [compound 403]”, the “Signal (peptides that bind to 23K21 and 8I10)” value in test [1] was found to be 772. Moreover, in test [2], the “Signal (peptides that bind to Z3G1)” value was 2318.
Regarding “397 (SLLTEVETPIRNEWGCRCNQSSD; epitope peptide) [compound 397]”, the “Signal (peptides that bind to 23K21 and 8I10)” value in test [1] was 842. Further, in test [2], the “Signal (peptides that bind to Z3G1)” value was determined as 2376.
Turning to “719 (SLLTEVETPIRNEWGCTCNDSSD; epitope peptide) [compound 719]”, the “Signal (peptides that bind to 23K21 and 8I10)” value in test [1] came to 700. Moreover, the “Signal (peptides that show specific binding to Z3G1)” value in test [2] was found to be 2347.
Take “387 (SLLTEVETPIRTEWGCRCNDSSD; epitope peptide) [compound 387]”: the “Signal (peptides that bind to 23K21 and 8I10)” value in test [1] is recorded as 1365. In addition, in test [2], the “Signal (peptides that show specific binding to Z3G1)” value was 2360.
Take “565 (SLLTEVETPIRVEWGCRCNDSSD; epitope peptide) [compound 565]”: the “Signal (peptides that bind to 23K21 and 8I10)” value in test [1] came out at 884. Also, in test [2], the “Signal (peptides that show specific binding to Z3G1)” value is on record as 2300.
Consider “346 (SLLMEVETPIRNEWGCRCNDSSD; epitope peptide) [compound 346]”, for which, in test [1], the “Signal (peptides that bind to 23K21 and 8I10)” value is on record as 1616. Besides, the “Signal (peptides that show specific binding to Z3G1)” value in test [2] is recorded as 2477.

Source of the values: patent US8932597B2 (priority 2008, dated 2015).
